Results taken from US20230190723A1 (MEREO BIOPHARMA 4 LIMITED, priority 2020, published 2023).

What was measured:
[1] = target: T1, NE (Homo sapiens, UniProt P08246); experiment: enzyme kinetics: SlaaapN cleavage by NE in the presence of inhibitor; type: biochemical
T1 construct: purchased Athens Research and Technology, US
T1 sequence (P08246 30-267): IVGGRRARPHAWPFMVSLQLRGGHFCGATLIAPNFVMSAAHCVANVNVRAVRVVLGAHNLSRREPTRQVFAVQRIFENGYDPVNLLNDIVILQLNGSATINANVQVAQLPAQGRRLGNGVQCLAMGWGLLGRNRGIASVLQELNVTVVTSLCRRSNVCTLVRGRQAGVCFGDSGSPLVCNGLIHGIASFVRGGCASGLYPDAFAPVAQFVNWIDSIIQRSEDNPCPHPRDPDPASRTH
Experimental: Results were determined computationally using Prism software.

[2] = target: T2, neutrophil elastase (Homo sapiens, UniProt P08246); experiment: proteinase/anti-proteinase imbalance model (fMLP-stimulated isolated neutrophils with fibrinogen, NE activity footprint Aα-Val360); type: cell-based; conditions: for NE activity remaining, % of untreated (Aα-Val360): no inhibitor = 100%
T2 construct: Neutrophils from healthy young volunteers were isolated; endogenous in cells; host or cells: neutrophils isolated from blood of healthy young volunteers, stimulated with fMLP in the presence of fibrinogen
T2 sequence (P08246 30-267): T1 sequence (P08246 30-267)
Experimental: Neutrophils from healthy young volunteers were isolated using a method broadly described by Jepsen and Skottun [10].
Supernatant was obtained through centrifugation, and NE activity footprints were measured.

[3] = tested on: neutrophils; experiment: validation of the Aα-Val360 assay with stimulated neutrophils; type: cell-based, human; conditions: 15 minutes
Experimental: Baseline corrected Aα-Val^360 levels following stimulation of neutrophils at 2.5 million/ml with Cal at 2.4/2.1/1.8/1.5/1.2/0.9/0.6/0.3 μM with fibrinogen (550 nM) for 60 minutes; n=3.
Change in Aα-Val^360 levels following stimulation of neutrophils at 2.5 million/ml with fMLP at 0, 0.1,1,10 μM fMLP with fibrinogen (550 nM) for 15 minutes; n=3.
To determine maximal stimulation a potent stimulator of neutrophils, Cal, [11] was titrated out from 0-2.4 μM and specific proteinase fibrinogen-cleavage product measured.
To assess a more physiological stimulus, neutrophils were then incubated with N-formylmethionine-leucyl-phenylalanine (fMLP).

[4] = target: Porcine Pancreatic Elastase (Sus scrofa, UniProt P00772); experiment: enzyme kinetics: SlaaapN cleavage by PPE after incubation with AAT; type: biochemical
Porcine Pancreatic Elastase, sequence (P00772 27-266): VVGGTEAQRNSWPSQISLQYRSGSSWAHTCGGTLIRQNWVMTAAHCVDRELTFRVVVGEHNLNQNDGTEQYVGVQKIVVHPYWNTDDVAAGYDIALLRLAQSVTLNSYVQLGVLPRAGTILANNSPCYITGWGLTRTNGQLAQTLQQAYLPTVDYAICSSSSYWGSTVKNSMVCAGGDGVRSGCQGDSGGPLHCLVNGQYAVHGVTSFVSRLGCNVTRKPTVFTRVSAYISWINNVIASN

[5] = simple linear regression, control fixed at 100%

Molecule: Cc1c(-c2ccnn2C)cc(C(=O)NCc2ccc(S(C)(=O)=O)cn2)c(=O)n1-c1cccc(C(F)(F)F)c1 [alvelestat, 6-methyl-5-(1-methyl-1H-pyrazol-5-yl)-N-{[5-(methylsulfonyl)pyridin-2-yl]methyl}-2-oxo-1-[3-(trifluoromethyl)phenyl]-1,2-dihydropyridine-3-carboxamide]
- molar ratio of inhibitor required to fully inhibit NE (inhibitor:NE, x:1) ([1]; SlaaapN substrate, by extrapolation): 0.87
- Slope, best-fit value (alvelestat:NE ratio vs NE enzymatic activity, FIG. 7) [1, 5]: −114.4
- X-intercept, best-fit value (alvelestat:NE ratio vs NE enzymatic activity, FIG. 7) [1, 5]: 0.8742
- alvelestat activity against NE ([1]; titrated against elastase of known concentration and activity, Prism): 88%
- NE activity remaining, % of untreated (Aα-Val360) ([2]; alvelestat 10 nM): 60.1%
- NE activity remaining, % of untreated (Aα-Val360) ([2]; alvelestat 1000 nM): 27.4%
- inhibition at 1 µM ([2]; read-out: inhibition (suppression) of NE activity): 72.6%

Molecule: CSCC[C@H](NC=O)C(=O)N[C@@H](CC(C)C)C(=O)N[C@@H](Cc1ccccc1)C(=O)O [fMLP, N-formyl-L-methionyl-L-leucyl-phenylalanine]
- increase of NE activity (Aα-Val360) ([3]; 0.1 μM fMLP, neutrophils 2.5 million/ml, fibrinogen 550 nM): 11.4 nM
- further increase of NE activity (Aα-Val360) ([3]; 1 μM fMLP, relative to 0.1 μM): 7.3 nM
- increase of NE activity (Aα-Val360) ([3]; 10 μM fMLP, the values are: Aα-Val360 level (NE activity)): 35 nM

Molecule: AAT: protective anti-proteinase alpha-1 antitrypsin, physiological inhibitor of neutrophil serine proteinases; purified batch from Athens Research & Technology
- molar concentration of AAT required to neutralise 1 Mol active PPE ([4]; SlaaapN substrate): 1.208 mol
- functional AAT activity ([4]; calculated from 1.208:1 AAT:PPE): 83%
